Seven molecules from patent publication US7332476B2, “Pyridyl substituted ketolide antibiotics” (Novartis AG, priority 2003, dated 2008) can be followed below.

What all share (assay): MIC, broth microdilution (NCCLS)
Assay [1] relates to Streptococcus pneumoniae Stpn_280-962. It counts as cell-based. To be noted: Table 7, Strain ID H (Table 6): S. pneumoniae Stpn_280-962. In outline:
(§1)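 NCCLS broth microdilution with 2-fold serial drug dilutions (methanol stocks diluted in water); inoculum 3×10^5–7×10^5 CFU/ml in CAMHB, with 2-5% lysed horse blood for S. pneumoniae. Incubation 18-24 h at 35° C., ambient air, except S. pneumoniae (5-10% CO2). MIC is lowest concentration preventing visible growth.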

Assay [2] deals with S. pneumoniae Stpn_Erm 6849. The assay is classed as cell-based, Streptococcus pneumoniae. To be noted: Table 7, Strain ID I (Table 6): S. pneumoniae Stpn_Erm 6849; unit assumed. The protocol:
(§2) Strains. The bacterial isolates listed in Table 4 were cultivated from −70° C. frozen stocks by two consecutive overnight passages (P1, P2) at 35° C. on 5% blood agar (Remel, Lenexa, Kans.). Chocolate agar (Remel) is used for Haemophilus influenzae. H. influenzae and Streptococcus pneumoniae are incubated in 5-10% CO2
(§3) Drug Stock Preparation. To determine the amount of solvent to be used to give the desired final concentration, the formula “weight obtained in mg/final concentration in mg/ml” will be used. It will give the amount of solvent in ml needed to be added to give the desired concentration. For example, if 2.5 mg/ml is the desired concentration and the weight of compound is 13.7 mg, then the amount of solvent to be added is […]. Methanol is used as the solvent to dissolve the test compounds. Further dilution of stock is done in sterile, deionized water. Drug stocks are kept frozen at −70° C., protected from light.
(§4) Susceptibility Testing. MICs are determined by the broth microdilution method in accordance with the NCCLS guidelines. In brief, organism suspensions are adjusted to a 0.5 McFarland standard to yield a final inoculum between 3×10^5 and 7×10^5 CFU/ml. Drug dilutions and inocula are made in sterile, cation adjusted Mueller-Hinton Broth (CAMHB) (Remel) for all but S. pneumoniae [CAMHB with 2-5% lysed horse blood (Remel)] and H. influenzae [Haemophilus Test Medium (Remel)]. An inoculum volume of 100 μl is added to wells containing 100 μl of broth with 2-fold serial dilutions of drug. All inoculated microdilution trays are incubated in ambient air at 35° C. for 18-24 hours, except for S. pneumoniae, and H. influenzae (both at 5-10% CO2).
(§5) Following appropriate incubation, the MIC is determined and the MIC is defined as the lowest concentration of the drug that prevented visible growth.

In assay [3] the test system is Streptococcus pneumoniae Stpn_297-749. It counts as cell-based. To be noted: Table 7, Strain ID G (Table 6): S. pneumoniae Stpn_297-749. In outline: as §1
Assay [4] concerns Staphylococcus epidermidis Step_f50654. The assay is classed as cell-based. To be noted: Table 7, Strain ID C (Table 6): S. epidermidis Step_f50654; in µg/mL (unit assumed). The essentials: as §1
The test system of assay [5] is Streptococcus pneumoniae Stpn_Mef S 3427. It counts as cell-based. To be noted: Table 7, Strain ID L (Table 6): S. pneumoniae Stpn_Mef S 3427. The essentials:
as §1

Assay [6] has as its system Haemophilus influenzae Hain_49247. The assay is classed as cell-based. To be noted: Table 7, Strain ID M (Table 6): H. influenzae Hain_49247; unit assumed.
In assay [7] the test system is Staphylococcus aureus Stau_29213. The assay is classed as cell-based. To be noted: Table 7, Strain ID A (Table 6): S. aureus Stau_29213; in µg/mL (unit assumed). In outline: as §1
For assay [8], the system named is Staphylococcus epidermidis Step_14990. It counts as cell-based. To be noted: Table 7, Strain ID B (Table 6): S. epidermidis Step_14990; in µg/mL (unit assumed). The essentials:
as §1

Assay [9] concerns Enterococcus faecalis Enfa_29212. The assay is classed as cell-based. To be noted: Table 7, Strain ID D (Table 6): E. faecalis Enfa_29212; in µg/mL (unit assumed). The essentials: as §1
For assay [10], the system named is Streptococcus pneumoniae Stpn_Erm S 4297. The assay is classed as cell-based. To be noted: Table 7, Strain ID J (Table 6): S. pneumoniae Stpn_Erm S 4297; unit assumed. In outline: as §1
For assay [11], the system named is Streptococcus pneumoniae Stpn_Mef 5654. It counts as cell-based. To be noted: Table 7, Strain ID K (Table 6): S. pneumoniae Stpn_Mef 5654; in µg/mL (unit assumed). The protocol:
as §2, §3, §4, §5
Strains. The bacterial isolates listed in Table 8 were cultivated from −70° C. frozen stocks by two consecutive overnight passages (P1, P2) at 35° C. on 5% blood agar (Remel, Lenexa, Kans.). Chocolate agar (Remel) is used for Haemophilus influenzae. H. influenzae and Streptococcus pneumoniae are incubated in 5-10% CO2
Following appropriate incubation, the MIC is determined and the MIC is defined as the lowest concentration of the drug that prevented visible growth. […] Antibacterial activity of representative compounds of the invention were compared against telitromycin.

For assay [12], the system named is Streptococcus pneumoniae Stpn_49619. It counts as cell-based. To be noted: Table 7, Strain ID F (Table 6): S. pneumoniae Stpn_49619. The essentials:
as §1

Assay [13] deals with Streptococcus pyogenes Stpy_8668. It counts as cell-based. To be noted: Table 7, Strain ID E (Table 6): S. pyogenes Stpy_8668. In outline: as §1

The structures appear in SMILES notation. Values after ≈ are worked out from the molar mass of the structure shown.

Regarding `CCC1OC(=O)C(C)C(=O)C(C)C(OC2OC(C)CC(N(C)C)C2O)C(C)(OC)CC(C)C(=O)C(C)C2C1OC(=O)N2CCCOc1ccc(-c2cccnc2)cc1` (stereo not shown) [Compound 20r], the MIC in assay [1] (unit assumed) came out at 0.1 µg/mL (≈ 0.123 µM); in assay [2], 25 µg/mL (≈ 30.9 µM); in [3] (unit assumed), 0.1 µg/mL (≈ 0.123 µM); in assay [4], 1.56; in assay [5] (in µg/mL (unit assumed)), 0.1; in [6], 50 µg/mL (≈ 61.7 µM). Further, the MIC in assay [7] came out at 3.13; in assay [8], 3.13; in [9], 1.56; in [10], 25 µg/mL (≈ 30.9 µM); in [11], 1.56; in [12] (unit assumed), 0.1 µg/mL (≈ 0.123 µM). The molecule also registered an MIC in assay [13] (unit assumed) of 0.4 µg/mL (≈ 0.494 µM).

Take `CCC1OC(=O)C(C)C(=O)C(C)C(OC2OC(C)CC(N(C)C)C2O)C(C)(OC)CC(C)C(=O)C(C)C2C1OC(=O)N2CCCOc1cccc(-c2cccnc2)c1` (stereo not shown) [Compound 20s]: the MIC entry in assay [1] was “=0.05”; in assay [2] it was 12.5 µg/mL (≈ 15.4 µM); in assay [3] it was “=0.05”; in assay [4] it was 0.4; in [5], “=0.05”; in [6] it was 3.13 µg/mL (≈ 3.86 µM). Moreover, the MIC in assay [7] was 0.78; in assay [8] it was 0.78; in assay [9], 0.2; in assay [10] it was 0.2 µg/mL (≈ 0.247 µM); in assay [11] it was 0.78; in assay [12] it was “=0.05”. Moreover, the MIC result in assay [13] is given as “=0.05”.

Take `CCC1OC(=O)C(C)C(=O)C(C)C(OC2OC(C)CC(N(C)C)C2O)C(C)(OC)CC(C)C(=O)C(C)C2C1OC(=O)N2CCCCc1ncc(-c2ccccc2)s1` (stereo not shown) [Compound 20t]: the MIC result in assay [1] was “=0.05”; in assay [2] it was 25 µg/mL (≈ 30.7 µM); in [3] it was “=0.05”; in assay [4] it was 0.4; in [5] (in µg/mL (unit assumed)) it was 0.1; in assay [6], 12.5 µg/mL (≈ 15.4 µM). For the same molecule, the MIC was 0.78 in assay [7]; 0.78 in assay [8]; 0.4 in [9]; 1.56 µg/mL (≈ 1.92 µM) in assay [10]; 1.56 in assay [11]; “=0.05” in [12]. The MIC in assay [13] (unit assumed) was determined as 0.2 µg/mL (≈ 0.246 µM).

As for `CCC1OC(=O)C(C)C(=O)C(C)C(OC2OC(C)CC(N(C)C)C2O)C(C)(OC)CC(C)C(=O)C(C)C2C1OC(=O)N2CCCCc1ncc(-c2ccc(F)cc2F)s1` (stereo not shown) [Compound 20u], the MIC in assay [1] (unit assumed) was 0.1 µg/mL (≈ 0.118 µM); in assay [2] it was 25 µg/mL (≈ 29.4 µM); in assay [3] (unit assumed), 0.1 µg/mL (≈ 0.118 µM); in assay [4] it was 0.4; in assay [5] (in µg/mL (unit assumed)), 0.2; in assay [6] it was 25 µg/mL (≈ 29.4 µM). Also, the MIC in assay [7] turned out to be 0.78; in assay [8] it was 0.78; in assay [9], 0.4; in [10], 12.5 µg/mL (≈ 14.7 µM); in assay [11], 1.56; in assay [12] (unit assumed), 0.1 µg/mL (≈ 0.118 µM). This molecule showed an MIC in [13] (unit assumed) of 0.4 µg/mL (≈ 0.471 µM).

Regarding `CCC1OC(=O)C(C)C(=O)C(C)C(OC2OC(C)CC(N(C)C)C2O)C(C)(OC)CC(C)C(=O)C(C)C2C1OC(=O)N2CCCCc1ncc(-c2cccc(N)c2)s1` (stereo not shown) [Compound 20v], the MIC result was “=0.05” in assay [1]; 50 µg/mL (≈ 60.3 µM) in [2]; “=0.05” in [3]; 0.2 in [4]; “=0.05” in [5]; 6.25 µg/mL (≈ 7.54 µM) in assay [6]. In addition, the MIC in [7] was 0.4; in [8], 0.4; in [9], 0.2; in assay [10], 0.4 µg/mL (≈ 0.482 µM); in assay [11], 0.78; in [12], “=0.05”. For the same molecule, the MIC entry in assay [13] was “=0.05”.

Turning to `CCC1OC(=O)C(C)C(=O)C(C)C(OC2OC(C)CC(N(C)C)C2O)C(C)(OC)CC(C)C(=O)C(C)C2C1OC(=O)N2OCCOc1ccccc1` (stereo not shown) [Compound 20w], the MIC entry in assay [1] is “=0.05”; in [2], 12.5 µg/mL (≈ 17 µM); in assay [3], “=0.05”; in [4] it was 3.13; in assay [5] (in µg/mL (unit assumed)) it was 0.1; in [6] it was 50 µg/mL (≈ 68 µM). The MIC was 3.13 in [7]; 1.56 in assay [8]; 0.2 in assay [9]; 3.13 µg/mL (≈ 4.26 µM) in assay [10]; 0.4 in assay [11]; “=0.05” in assay [12]. Besides, the MIC result in assay [13] is reported as “=0.05”.

`CC[C@H]1OC(=O)[C@H](C)C(=O)[C@H](C)[C@@H](OC2O[C@H](C)C[C@H](N(C)C)[C@H]2O)[C@@](C)(OC)C[C@@H](C)C(=O)[C@H](C)[C@H]2N(CCCC(C)(C)n3cnc(-c4cccnc4)c3)C(=O)O[C@]12CC` (stereo partly drawn) [Example 31, (3aS,4R,7R,9R,10R,11S,13R,15R,15aR)-3a,4-diethyl-11-methoxy-7,9,11,13,15-pentamethyl-1-[4-methyl-4-(4-pyridin-3-yl-1H-imidazol-1-yl)pentyl]-2,6,8,14-tetraoxotetradecahydro-2H-oxacyclotetradecino[4,3-d][1,3]oxazol-10-yl-3,4,6-trideoxy-3-(dimethylamino)-D-xylo-hexopyranoside]: the MIC result was “=0.05” in assay [1]; 0.4 µg/mL (≈ 0.468 µM) in assay [2]; “=0.05” in [3]; 0.4 in assay [4]; 0.2 in [5] (in µg/mL (unit assumed)); 6.25 µg/mL (≈ 7.32 µM) in [6]. The MIC was 0.2 in assay [7]; 0.4 in assay [8]; 0.2 in [9]; 0.2 µg/mL (≈ 0.234 µM) in assay [10]; 0.78 in [11]; “=0.05” in assay [12]. Besides, the MIC entry in assay [13] is on record as “=0.05”.
